Source: patent publication US20160176914A1, “GLYCOSYLATED CARDIOTONIC STEROIDS” (priority 2013, published 2016)
Where two headings read alike, the source gives them in different places.

Test system: NCI-H460 cells
Assay: cells
Type: cell-based, Human
Settings: for IC50: Homo sapiens, NCI-H460, H460 cells, read-out: IC50; for cytotoxicity / activity for H460 cells, in words: comparison
Protocol: Human non-small cell lung cancer cells (NCI-H460) were purchased from the American Type Culture Collection (Manassas, Va.). NCI-H460 cells were cultured in RPMI 1640 medium supplemented with 10% bovine fetal serum (FBS), 2 mM L-glutamine and 100-units/ml penicillin/streptomycin. All experiments with NCI-H460 cells were performed in medium enriched with 1% FBS serum, 2 mM L-glutamine and 100-units/ml penicillin/streptomycin. 1% FBS was used due to existing concerns about digitoxin binding to serum proteins.
Cells were seeded overnight in 96 well plates at a concentration of 1×10^4 cells/well, and then treated for 48 h with a log10 scale dilution series of the glycosylated CS compounds (e.g., digitoxin or D6-MA) dissolved in sterile filtered DMSO. Subsequently, 10 μl of 5 mg/ml MTT reagent was added to each well and then incubated for 4 h at 37° C. Isopropanol acidified with 0.04 N HCl was used to dissolve converted dye. Absorbance at 570 nm was measured using an Automated Microplate Reader ELx800 (BioTek, Winooski, Vt.). Each experiment was conducted 4 times with 4 replicate wells per concentration.
All results are presented as mean±standard deviation. For cell viability, ATPase activity and apoptosis assays, dose-response curves and concentrations that caused 50% effect (i.e. IC50) were calculated for the prepared compounds listed in Tables 1-3 in all the cell lines tested using non-linear regression analysis in GraphPad Prism 5.0 (San Diego, Calif.). Two-way analysis of variance (ANOVA) and unpaired two-tailed Student's t-test with α=0.05 were performed to compare the effect of compounds and administered dose on cell viability, apoptosis and quantified protein expression data. Post-hoc Tukey-Kramer HSD tests were conducted on significant ANOVA results. Results were considered significant when p≦0.05.

CC1O[C@@H](O[C@H]2CCC3(C)C(CC[C@@H]4C3CCC3(C)[C@@H](C5=CC(=O)OC5)CC[C@]43O)C2)C(O)C(O)[C@H]1N (stereo in doubt) [Compound 2.1, digitoxigenin α-L-4-amino-rhamnopyranoside]
IC50 (Table 5, compounds of Table 2): 0.0051 µM | cytotoxicity / activity for H460 cells, in words: improved cytotoxicity

CC1O[C@@H](OC2C(O)[C@H](O[C@H]3CCC4(C)C(CC[C@@H]5C4CCC4(C)[C@@H](C6=CC(=O)OC6)CC[C@]54O)C3)OC(C)[C@@H]2O)C(O)C(O)[C@H]1O (stereo in doubt) [Compound 2.3, digitoxigenin α-L-rhamnopyranosyl-(1 → 3)-α-L-rhamnopyranoside]
IC50 (Table 5, compounds of Table 2): 0.0455 µM | cytotoxicity / activity for H460 cells, in words: does not significantly reduce activity

CC1O[C@H](OC2C(O)[C@H](O[C@H]3CCC4(C)C(CC[C@@H]5C4CCC4(C)[C@@H](C6=CC(=O)OC6)CC[C@]54O)C3)OC(C)[C@@H]2O)C(O)C(O)[C@@H]1O (stereo in doubt) [Compound 2.4, digitoxigenin α-D-rhamnopyranosyl-(1 → 3)-α-L-rhamnopyranoside]
IC50 (Table 5, compounds of Table 2): 0.332 µM

CC1O[C@H](OC2C(O)[C@H](OC3C(O)[C@H](O[C@H]4CCC5(C)C(CC[C@@H]6C5CCC5(C)[C@@H](C7=CC(=O)OC7)CC[C@]65O)C4)OC(C)[C@@H]3O)OC(C)[C@@H]2O)C(O)C(O)[C@@H]1O (stereo in doubt) [Compound 2.9, digitoxigenin α-D-rhamnopyranosyl-(1 → 3)-α-L-rhamnopyranosyl-(1 → 3)-α-L-rhamnopyranoside]
IC50 (Table 5, compounds of Table 2): 0.086 µM

CC1O[C@@H](OC2C(O)[C@H](OC3C(O)[C@H](O[C@H]4CCC5(C)C(CC[C@@H]6C5CCC5(C)[C@@H](C7=CC(=O)OC7)CC[C@]65O)C4)OC(C)[C@@H]3O)OC(C)[C@@H]2O)C(O)C(O)[C@H]1O (stereo in doubt) [Compound 2.10, digitoxigenin α-L-rhamnopyranosyl-(1 → 3)-α-L-rhamnopyranosyl-(1 → 3)-α-L-rhamnopyranoside]
IC50 (Table 5, compounds of Table 2): 0.0506 µM

C[C@@H]1O[C@@H](O[C@H]2CC[C@@]3(C)[C@H](CC[C@@H]4[C@@H]3C[C@@H](O)[C@]3(C)[C@@H](C5=CC(=O)OC5)CC[C@]43O)C2)CC[C@H]1O (stereo in doubt) [Compound 3.3, digoxigenin α-L-amecitopyranoside]
IC50 (Table 6, compounds of Table 3): 0.054 µM | cytotoxicity / activity for H460 cells, in words: more active than the diastereomeric α-D-sugars

C[C@@H]1O[C@@H](O[C@H]2CC[C@@]3(C)[C@H](CC[C@@H]4[C@@H]3C[C@@H](O)[C@]3(C)[C@@H](C5=CC(=O)OC5)CC[C@]43O)C2)[C@H](O)[C@H](O)[C@H]1O (stereo in doubt) [Compound 3.7, digoxigenin α-L-rhamnopyranoside]
IC50 (Table 6, compounds of Table 3): 0.019 µM | cytotoxicity / activity for H460 cells, in words: more active than the diastereomeric α-D-sugars

CC1O[C@@H](O[C@H]2CCC3(C)C(CC[C@@H]4C3CCC3(C)[C@@H](C5=CC(=O)OC5)CC[C@]43O)C2)CC[C@H]1N (stereo partly drawn) [Compound 2.2, digitoxigenin α-L-4-amino-amecitopyranoside]
IC50 (Table 5, compounds of Table 2): 0.0031 µM | cytotoxicity / activity for H460 cells, in words: improved cytotoxicity

CC1OC(O[C@H]2CCC3(C)C(CCC4C3CCC3(C)[C@@H](C5=CC(=O)OC5)CC[C@]43O)C2)C(O)C(OC2CC[C@@H](O)C(C)O2)[C@H]1O (stereo partly drawn) [Compound 2.5, [2,3-dihydro-4-hydroxy-α-L-Amip-(1→3)-2,4-dihydroxy-α-L-Rhap]-Dig]
IC50 (Table 5, compounds of Table 2): 0.389 µM

CC1OC(O[C@H]2CCC3(C)C(CCC4C3CCC3(C)[C@@H](C5=CC(=O)OC5)CC[C@]43O)C2)C(O)C(OC2CC[C@H](O)C(C)O2)[C@H]1O (stereo partly drawn) [Compound 2.6, [2,3-dihydro-4-hydroxy-α-D-Amip-(1→3)-2,4-dihydroxy-α-L-Rhap]-Dig]
IC50 (Table 5, compounds of Table 2): 0.651 µM

CC1O[C@H](O[C@H]2C(C)O[C@@H](O[C@H]3CCC4(C)C(CC[C@@H]5C4CCC4(C)[C@@H](C6=CC(=O)OC6)CC[C@]54O)C3)C(O)C2O)C(O)C(O)[C@@H]1O (stereo partly drawn) [Compound 2.7, digitoxigenin α-D-rhamnopyranosyl-(1 → 4)-α-L-rhamnopyranoside]
IC50 (Table 5, compounds of Table 2): 0.07 µM | cytotoxicity / activity for H460 cells, in words: much greater activity
